ChEMBL document CHEMBL5042487, “Design, synthesis, and biological activity evaluation of 2-(benzo[b]thiophen-2-yl)-4-phenyl-4,5-dihydrooxazole derivatives as broad-spectrum antifungal agents” (Eur J Med Chem, 2022)
Values after ≈ are worked out from the molar mass of the structure shown.

Columns and labels:
[1] = Stability in human plasma assessed as compound remaining incubated for 60 mins by LC-MS/MS analysis; format: ADME, cell-free; details: read-out: Stability
[2] = Metabolic stability in human liver microsomes assessed as microsomal intrinsic clearance at 100 uM pre-incubated for 10 mins followed by NADPH-regenerating system and measured upto 60 mins by LC-MS/MS analysis; format: ADME, Microsome; details: time <=70 min, read-out: CLH
Cytochrome P450 2C9 = Cytochrome P450 2C9 (Homo sapiens, UniProt P11712); assay: Inhibition of CYP2C9 in human liver microsomes incubated for 10 mins in presence of NADPH by LC/MS/MS analysis; format: ADME
[3] = Metabolic stability in human liver microsomes assessed as parent compound remaining at 100 uM pre-incubated for 10 mins followed by NADPH-regenerating system and measured upto 60 mins by LC-MS/MS analysis; format: ADME, Microsome; details: time <=70 min, read-out: Stability
Cytochrome P450 2C19 = Cytochrome P450 2C19 (Homo sapiens, UniProt P33261); assay: Inhibition of CYP2C19 in human liver microsomes incubated for 10 mins in presence of NADPH by LC/MS/MS analysis; format: ADME
Cytochrome P450 2D6 = Cytochrome P450 2D6 (Homo sapiens, UniProt P10635); assay: Inhibition of CYP2D6 in human liver microsomes incubated for 10 mins in presence of NADPH by LC/MS/MS analysis; format: ADME
[4] = Metabolic stability in human liver microsomes assessed as parent compound remaining incubated upto 60 mins by LC-MS/MS analysis; format: ADME, Microsome; details: read-out: Stability
[5] = Metabolic stability in human liver microsomes assessed as half life at 100 uM pre-incubated for 10 mins followed by NADPH-regenerating system and measured upto 60 mins by LC-MS/MS analysis; format: ADME, Microsome; details: time <=70 min
Candida albicans [6] = assay: Antifungal activity against Candida albicans SC5314 assessed as inhibition of fungal growth by NCCLS protocol based method; format: functional
Candida albicans [7] = assay: Antifungal activity against fluconazole resistant Candida albicans CaR assessed as inhibition of fungal growth by NCCLS protocol based method; format: functional
Candida albicans [8] = assay: Antifungal activity against Candida albicans GIM 2.194 assessed as inhibition of fungal growth by NCCLS protocol based method; format: functional
Cryptococcus neoformans = assay: Antifungal activity against Cryptococcus neoformans GIM 2.209 assessed as inhibition of fungal growth by NCCLS protocol based method; format: functional
Cytochrome P450 3A4 = Cytochrome P450 3A4 (Homo sapiens, UniProt P08684); assay: Inhibition of CYP3A4 in human liver microsomes incubated for 10 mins in presence of NADPH by LC/MS/MS analysis; format: ADME
Cytochrome P450 1A2 = target: T1, Cytochrome P450 1A2 (Homo sapiens, UniProt P05177); assay: Inhibition of CYP1A2 in human liver microsomes incubated for 10 mins in presence of NADPH by LC/MS/MS analysis; format: ADME
T1 sequence (P05177 whole entry): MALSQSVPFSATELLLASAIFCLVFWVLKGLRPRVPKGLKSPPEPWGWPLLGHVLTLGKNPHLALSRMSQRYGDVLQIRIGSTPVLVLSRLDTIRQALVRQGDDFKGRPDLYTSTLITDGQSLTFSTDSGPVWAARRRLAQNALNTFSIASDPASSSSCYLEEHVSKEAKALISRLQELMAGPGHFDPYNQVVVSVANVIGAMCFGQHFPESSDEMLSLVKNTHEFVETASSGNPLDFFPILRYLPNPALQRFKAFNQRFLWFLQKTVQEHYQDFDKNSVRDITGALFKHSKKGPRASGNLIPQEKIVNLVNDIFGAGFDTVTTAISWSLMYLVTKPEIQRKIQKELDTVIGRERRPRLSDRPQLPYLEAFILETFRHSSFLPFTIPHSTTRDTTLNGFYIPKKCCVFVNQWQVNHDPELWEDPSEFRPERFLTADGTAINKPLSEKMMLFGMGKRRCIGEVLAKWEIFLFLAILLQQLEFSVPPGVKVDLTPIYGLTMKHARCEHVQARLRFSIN

[9] = Stability in human plasma assessed as compound remaining incubated for 120 mins by LC-MS/MS analysis; format: ADME, cell-free; details: 2 h
[10] = Stability in human plasma assessed as half life incubated for 60 mins by LC-MS/MS analysis; format: ADME, cell-free
Candida albicans [11] = assay: Antifungal activity against fluconazole and itraconazole resistant Candida albicans 17# assessed as inhibition of fungal growth by NCCLS protocol based method; format: functional
[12] = Metabolic stability in human liver microsomes assessed as liver intrinsic clearance at 100 uM pre-incubated for 10 mins followed by NADPH-regenerating system and measured upto 60 mins by LC-MS/MS analysis; format: ADME, Microsome; details: time <=70 min, read-out: CLH
Candida tropicalis = assay: Antifungal activity against Candida tropicalis GIM 2.183 assessed as inhibition of fungal growth by NCCLS protocol based method; format: functional
Aspergillus fumigatus = assay: Antifungal activity against Aspergillus fumigatus CGMCC 3.7795 assessed as inhibition of fungal growth by NCCLS protocol based method; format: functional
[13] = Half life in Sprague-Dawley rat at 2 mg/kg, iv measured upto 24 hrs by LC/MS/MS analysis; format: ADME, organism-based; details: in vivo
[14] = Clearance in Sprague-Dawley rat at 2 mg/kg, iv measured upto 24 hrs by LC/MS/MS analysis; format: ADME, organism-based; details: in vivo
[15] = AUC (0 to infinity) in Sprague-Dawley rat at 2 mg/kg, iv measured upto 24 hrs by LC/MS/MS analysis; format: ADME, organism-based; parameters: route intravenous, dose 2 mg/kg, time <=24; details: in vivo
[16] = AUC(0 to last) in Sprague-Dawley rat at 2 mg/kg, iv measured upto 24 hrs by LC/MS/MS analysis; format: ADME, organism-based; parameters: route intravenous, dose 2 mg/kg, time <=24; details: in vivo
[17] = Volume of distribution at steady state in Sprague-Dawley rat at 2 mg/kg, iv measured upto 24 hrs by LC/MS/MS analysis; format: ADME, organism-based; details: in vivo, read-out: Vdss
[18] = Initial plasma concentration in Sprague-Dawley rat at 2 mg/kg, iv measured upto 24 hrs by LC/MS/MS analysis; format: ADME, organism-based

Sequence of Cytochrome P450 2D6 (P10635 whole entry): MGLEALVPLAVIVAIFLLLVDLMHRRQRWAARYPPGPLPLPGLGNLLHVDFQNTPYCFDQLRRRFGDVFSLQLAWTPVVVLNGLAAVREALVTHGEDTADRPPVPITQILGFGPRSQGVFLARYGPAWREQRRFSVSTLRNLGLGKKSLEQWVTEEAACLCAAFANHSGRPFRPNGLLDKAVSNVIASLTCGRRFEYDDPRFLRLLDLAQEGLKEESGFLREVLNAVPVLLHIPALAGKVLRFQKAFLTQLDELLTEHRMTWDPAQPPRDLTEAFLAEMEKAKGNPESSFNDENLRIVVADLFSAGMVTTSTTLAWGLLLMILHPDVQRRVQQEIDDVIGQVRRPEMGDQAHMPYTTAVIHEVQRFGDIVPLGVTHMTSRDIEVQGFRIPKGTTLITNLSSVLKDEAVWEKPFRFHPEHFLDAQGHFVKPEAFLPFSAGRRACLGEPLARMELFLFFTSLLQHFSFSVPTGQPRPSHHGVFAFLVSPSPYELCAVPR
Sequence of Cytochrome P450 3A4 (P08684 whole entry): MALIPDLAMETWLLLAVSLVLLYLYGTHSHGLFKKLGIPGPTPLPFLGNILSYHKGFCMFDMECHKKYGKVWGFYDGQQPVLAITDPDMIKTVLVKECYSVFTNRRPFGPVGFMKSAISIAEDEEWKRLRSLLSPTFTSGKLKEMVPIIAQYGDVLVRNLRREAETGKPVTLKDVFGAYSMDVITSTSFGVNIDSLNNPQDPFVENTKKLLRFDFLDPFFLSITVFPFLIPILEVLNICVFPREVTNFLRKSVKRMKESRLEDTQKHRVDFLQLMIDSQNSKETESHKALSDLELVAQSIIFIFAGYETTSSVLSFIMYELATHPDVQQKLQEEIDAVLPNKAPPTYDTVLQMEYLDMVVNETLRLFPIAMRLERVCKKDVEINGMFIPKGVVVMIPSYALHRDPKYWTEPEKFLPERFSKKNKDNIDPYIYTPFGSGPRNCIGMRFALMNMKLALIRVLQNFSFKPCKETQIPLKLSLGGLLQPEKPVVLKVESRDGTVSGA
Sequence of Cytochrome P450 2C9 (P11712 whole entry): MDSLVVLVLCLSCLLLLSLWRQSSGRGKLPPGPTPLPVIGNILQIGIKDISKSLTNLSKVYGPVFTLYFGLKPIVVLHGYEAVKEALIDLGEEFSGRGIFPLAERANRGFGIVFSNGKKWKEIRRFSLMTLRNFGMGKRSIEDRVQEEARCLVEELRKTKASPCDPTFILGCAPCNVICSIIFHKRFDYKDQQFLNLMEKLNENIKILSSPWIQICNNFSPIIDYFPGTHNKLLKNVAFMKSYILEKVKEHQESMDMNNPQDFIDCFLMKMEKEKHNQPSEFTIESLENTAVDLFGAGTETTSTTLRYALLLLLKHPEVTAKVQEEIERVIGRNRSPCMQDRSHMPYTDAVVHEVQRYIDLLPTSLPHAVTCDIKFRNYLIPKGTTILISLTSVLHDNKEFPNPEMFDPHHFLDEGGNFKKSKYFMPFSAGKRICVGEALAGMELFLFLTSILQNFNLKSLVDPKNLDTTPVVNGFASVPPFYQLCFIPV
Sequence of Cytochrome P450 2C19 (P33261 whole entry): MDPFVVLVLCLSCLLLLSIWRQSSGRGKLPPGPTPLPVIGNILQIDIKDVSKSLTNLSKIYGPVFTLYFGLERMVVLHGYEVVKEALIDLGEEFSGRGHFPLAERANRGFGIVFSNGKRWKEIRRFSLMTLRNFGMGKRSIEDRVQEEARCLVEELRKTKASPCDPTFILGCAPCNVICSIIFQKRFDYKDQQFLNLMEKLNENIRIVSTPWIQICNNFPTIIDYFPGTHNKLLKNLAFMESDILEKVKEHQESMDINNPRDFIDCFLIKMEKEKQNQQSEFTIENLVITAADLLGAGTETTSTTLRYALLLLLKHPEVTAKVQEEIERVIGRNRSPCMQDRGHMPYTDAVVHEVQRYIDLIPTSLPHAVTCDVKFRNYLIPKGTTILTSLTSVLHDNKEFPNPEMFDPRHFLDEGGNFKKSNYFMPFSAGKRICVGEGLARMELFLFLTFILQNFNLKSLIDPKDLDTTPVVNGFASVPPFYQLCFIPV

Row | Compound | MIC (Candida albicans [6]) | MIC (Candida albicans [7]) | MIC (Candida albicans [8]) | MIC (Cryptococcus neoformans) | MIC (Candida albicans [11]) | MIC (Candida tropicalis) | MIC (Aspergillus fumigatus) | further results
1 | Clc1ccc(C2(Cn3cncn3)COC(c3cc4ccc(Cl)cc4s3)=N2)cc1 (configuration not stated) | < 0.03 µg/mL | 0.5 µg/mL (≈ 1.16 µM) | < 0.03 µg/mL | 0.5 µg/mL (≈ 1.16 µM) | > 64 µg/mL | 0.06 µg/mL (≈ 0.14 µM) | 2 µg/mL (≈ 4.66 µM) | remaining at 1 h [1]: 92.7%; microsomal CLint at 100 µM [2]: 20 µL/min/mg; IC50 (Cytochrome P450 2C9): 1500 nM; remaining at 1 h, 100 µM [3]: 49.9%; IC50 (Cytochrome P450 2C19): 168 nM; IC50 (Cytochrome P450 2D6): 47.6 µM; remaining at 1 h [4]: 77.3%; half-life at 100 µM [5]: 69.4 min; IC50 (Cytochrome P450 3A4): 29.1 µM; IC50 (Cytochrome P450 1A2): 5.67 µM; Stability [9]: 116.1%; half-life [10]: > 289 min; CLint scaled at 100 µM [12]: 18 mL/min/kg
2 | Fc1ccc(C2(Cn3cncn3)COC(c3ccc(-c4ccoc4)cc3)=N2)cc1 (configuration not stated) | < 0.03 µg/mL | – | < 0.03 µg/mL | 0.25 µg/mL (≈ 0.644 µM) | – | 0.125 µg/mL (≈ 0.322 µM) | 0.25 µg/mL (≈ 0.644 µM) | half-life at 100 µM [5]: 18.6 min
3 | Fc1ccc(C2(Cn3cncn3)COC(c3cc4ccc(Br)cc4s3)=N2)c(F)c1 (configuration not stated) | < 0.03 µg/mL | – | < 0.03 µg/mL | 0.5 µg/mL (≈ 1.05 µM) | – | < 0.03 µg/mL | > 64 µg/mL | –
4 | Fc1ccc(C2(Cn3cncn3)COC(c3cc4ccc(Cl)cc4s3)=N2)cc1 (configuration not stated) | < 0.03 µg/mL | 0.5 µg/mL (≈ 1.21 µM) | < 0.03 µg/mL | 0.25 µg/mL (≈ 0.606 µM) | > 64 µg/mL | < 0.03 µg/mL | 0.5 µg/mL (≈ 1.21 µM) | remaining at 1 h [1]: 92.6%; microsomal CLint at 100 µM [2]: 17.2 µL/min/mg; IC50 (Cytochrome P450 2C9): 2870 nM; remaining at 1 h, 100 µM [3]: 54.6%; IC50 (Cytochrome P450 2C19): 1040 nM; IC50 (Cytochrome P450 2D6): 31.3 µM; remaining at 1 h [4]: 82.6%; half-life [13]: 200 min; half-life at 100 µM [5]: 80.5 min; clearance [14]: 69.4 mL/min/kg; IC50 (Cytochrome P450 3A4): 10.1 µM; IC50 (Cytochrome P450 1A2): 4.47 µM; Stability [9]: 108.2%; half-life [10]: > 289 min; AUC(0-inf) [15]: 505 ng·h/mL; CLint scaled at 100 µM [12]: 15.5 mL/min/kg; AUC(0-t) at 24 h [16]: 483 ng·h/mL; Vd [17]: 10.3 L/kg; C0 at 24 h [18]: 482 ng/mL
5 | Fc1ccc(C2(Cn3cncn3)COC(c3cc4ccc(Br)cc4s3)=N2)cc1 (configuration not stated) | < 0.03 µg/mL | 0.5 µg/mL (≈ 1.09 µM) | 0.06 µg/mL (≈ 0.131 µM) | 1 µg/mL (≈ 2.19 µM) | > 64 µg/mL | 0.13 µg/mL (≈ 0.284 µM) | 2 µg/mL (≈ 4.37 µM) | –
6 | Fc1cc(F)cc(C2(Cn3cncn3)COC(c3cc4ccc(Br)cc4s3)=N2)c1 (configuration not stated) | 0.06 µg/mL (≈ 0.126 µM) | – | 0.06 µg/mL (≈ 0.126 µM) | 0.25 µg/mL (≈ 0.526 µM) | – | 0.125 µg/mL (≈ 0.263 µM) | > 64 µg/mL | –
7 | Fc1ccc(C2(Cn3cncn3)COC(c3cc4ccc(F)cc4s3)=N2)cc1 (configuration not stated) | 0.125 µg/mL (≈ 0.315 µM) | > 64 µg/mL | 0.5 µg/mL (≈ 1.26 µM) | 2 µg/mL (≈ 5.05 µM) | > 64 µg/mL | 0.25 µg/mL (≈ 0.631 µM) | 1 µg/mL (≈ 2.52 µM) | –
8 | Fc1cccc(C2(Cn3cncn3)COC(c3cc4ccc(Cl)cc4s3)=N2)c1 (configuration not stated) | < 0.03 µg/mL | > 64 µg/mL | < 0.03 µg/mL | 0.25 µg/mL (≈ 0.606 µM) | > 64 µg/mL | 4 µg/mL (≈ 9.69 µM) | 1 µg/mL (≈ 2.42 µM) | –
9 | Fc1cccc(C2(Cn3cncn3)COC(c3cc4ccc(Br)cc4s3)=N2)c1 (configuration not stated) | < 0.03 µg/mL | > 64 µg/mL | < 0.03 µg/mL | 0.25 µg/mL (≈ 0.547 µM) | > 64 µg/mL | < 0.03 µg/mL | 2 µg/mL (≈ 4.37 µM) | –
10 | Clc1ccc(C2(Cn3cncn3)COC(c3cc4ccc(Br)cc4s3)=N2)cc1 (configuration not stated) | < 0.03 µg/mL | 0.5 µg/mL (≈ 1.06 µM) | < 0.03 µg/mL | 0.25 µg/mL (≈ 0.528 µM) | > 64 µg/mL | 0.06 µg/mL (≈ 0.127 µM) | 1 µg/mL (≈ 2.11 µM) | –
11 | Fc1cc(F)cc(C2(Cn3cncn3)COC(c3cc4ccc(Cl)cc4s3)=N2)c1 (configuration not stated) | 0.06 µg/mL (≈ 0.139 µM) | – | 0.06 µg/mL (≈ 0.139 µM) | 0.25 µg/mL (≈ 0.58 µM) | – | 0.125 µg/mL (≈ 0.29 µM) | > 64 µg/mL | –
12 | OC(Cn1cncn1)(Cn1cncn1)c1ccc(F)cc1F [FLUCONAZOLE] | 0.5 µg/mL (≈ 1.63 µM) | > 64 µg/mL | 1 µg/mL (≈ 3.27 µM) | 4 µg/mL (≈ 13.1 µM) | > 64 µg/mL | 1 µg/mL (≈ 3.27 µM) | > 64 µg/mL | remaining at 1 h [1]: 86.7%; Stability [9]: 88.2%; half-life [10]: > 289 min
13 | CCC(C)n1ncn(-c2ccc(N3CCN(c4ccc(OCC5COC(Cn6cncn6)(c6ccc(Cl)cc6Cl)O5)cc4)CC3)cc2)c1=O (configuration not stated) [ITRACONAZOLE] | < 0.03 µg/mL | – | < 0.03 µg/mL | < 0.125 µg/mL | – | < 0.03 µg/mL | < 0.125 µg/mL | –
